ChEMBL document CHEMBL3091394, “Novel tacrine-ebselen hybrids with improved cholinesterase inhibitory, hydrogen peroxide and peroxynitrite scavenging activity” (Bioorg Med Chem Lett, 2013)
The source made the active and inactive calls. The calls are words filed in the database; no cut-off is given here.

What was measured:
Acetylcholinesterase [1] = target: Acetylcholinesterase (Electrophorus electricus, UniProt O42275)
Description: Inhibition of electric eel AChE using acetylthiocholine chloride as substrate preincubated for 15 mins by Ellman's method

Cholinesterase = Cholinesterase (Equus caballus, UniProt P81908)
Description: Inhibition of equine serum BuChE using butylthiocholine chloride as substrate preincubated for 15 mins by Ellman's method

[2] = Antioxidant activity assessed as pyrogallol red dye bleaching-induced peroxynitrite scavenging activity up to 62.5 uM relative to ebselen; type: functional
[3] = Antioxidant activity assessed as hydrogen peroxide radical scavenging activity at 25 uM after 10 hrs by horseradish peroxidase assay; type: functional
[4] = Antioxidant activity assessed as hydrogen peroxide radical scavenging activity at 20 to 100 uM after 10 hrs by horseradish peroxidase assay; type: functional
[5] = Cytotoxicity against human HSC assessed as cell viability at 5 to 10 uM after 24 hrs by MTT assay
[6] = Antioxidant activity assessed as hydrogen peroxide radical scavenging activity at 12.5 uM after 10 hrs by horseradish peroxidase assay; type: functional
Acetylcholinesterase [7] = target: Acetylcholinesterase (Homo sapiens, UniProt P22303); assay: Inhibition of human AChE using acetylthiocholine chloride as substrate preincubated for 15 mins by Ellman's method
Sequence of Acetylcholinesterase (Homo sapiens, UniProt P22303) (P22303 whole entry): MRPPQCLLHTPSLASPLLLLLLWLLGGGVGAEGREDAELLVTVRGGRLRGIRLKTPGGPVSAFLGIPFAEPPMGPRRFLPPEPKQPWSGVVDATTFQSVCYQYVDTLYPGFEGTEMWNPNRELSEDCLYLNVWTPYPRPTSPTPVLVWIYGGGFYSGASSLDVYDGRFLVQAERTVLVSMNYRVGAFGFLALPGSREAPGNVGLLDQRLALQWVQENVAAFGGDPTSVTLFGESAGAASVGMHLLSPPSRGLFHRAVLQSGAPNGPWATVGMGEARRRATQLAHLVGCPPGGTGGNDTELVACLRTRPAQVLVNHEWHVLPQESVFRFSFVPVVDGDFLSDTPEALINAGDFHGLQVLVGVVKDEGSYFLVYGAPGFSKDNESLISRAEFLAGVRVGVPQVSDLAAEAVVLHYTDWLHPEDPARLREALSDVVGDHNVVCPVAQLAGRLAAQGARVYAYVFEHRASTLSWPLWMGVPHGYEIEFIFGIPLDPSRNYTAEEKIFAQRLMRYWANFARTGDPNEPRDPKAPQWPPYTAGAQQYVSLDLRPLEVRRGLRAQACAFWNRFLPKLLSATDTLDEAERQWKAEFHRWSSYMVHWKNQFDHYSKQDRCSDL

Sequence of Acetylcholinesterase (Electrophorus electricus, UniProt O42275) (O42275 whole entry): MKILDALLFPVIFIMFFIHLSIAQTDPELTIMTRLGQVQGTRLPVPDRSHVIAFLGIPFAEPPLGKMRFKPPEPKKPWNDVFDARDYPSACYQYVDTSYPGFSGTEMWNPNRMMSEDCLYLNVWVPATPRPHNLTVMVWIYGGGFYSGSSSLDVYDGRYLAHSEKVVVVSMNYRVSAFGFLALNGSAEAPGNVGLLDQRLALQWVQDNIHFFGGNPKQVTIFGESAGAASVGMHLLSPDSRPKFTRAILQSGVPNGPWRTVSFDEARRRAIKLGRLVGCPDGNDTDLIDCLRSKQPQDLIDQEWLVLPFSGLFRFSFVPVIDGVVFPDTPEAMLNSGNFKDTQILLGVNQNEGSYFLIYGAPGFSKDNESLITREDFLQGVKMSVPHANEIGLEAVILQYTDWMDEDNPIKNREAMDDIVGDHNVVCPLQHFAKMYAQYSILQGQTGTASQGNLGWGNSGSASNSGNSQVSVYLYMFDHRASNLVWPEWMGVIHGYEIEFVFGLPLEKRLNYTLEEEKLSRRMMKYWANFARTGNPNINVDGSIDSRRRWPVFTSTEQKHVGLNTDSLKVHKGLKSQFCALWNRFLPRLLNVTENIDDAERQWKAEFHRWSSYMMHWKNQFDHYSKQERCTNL
Sequence of Cholinesterase (P81908 whole entry): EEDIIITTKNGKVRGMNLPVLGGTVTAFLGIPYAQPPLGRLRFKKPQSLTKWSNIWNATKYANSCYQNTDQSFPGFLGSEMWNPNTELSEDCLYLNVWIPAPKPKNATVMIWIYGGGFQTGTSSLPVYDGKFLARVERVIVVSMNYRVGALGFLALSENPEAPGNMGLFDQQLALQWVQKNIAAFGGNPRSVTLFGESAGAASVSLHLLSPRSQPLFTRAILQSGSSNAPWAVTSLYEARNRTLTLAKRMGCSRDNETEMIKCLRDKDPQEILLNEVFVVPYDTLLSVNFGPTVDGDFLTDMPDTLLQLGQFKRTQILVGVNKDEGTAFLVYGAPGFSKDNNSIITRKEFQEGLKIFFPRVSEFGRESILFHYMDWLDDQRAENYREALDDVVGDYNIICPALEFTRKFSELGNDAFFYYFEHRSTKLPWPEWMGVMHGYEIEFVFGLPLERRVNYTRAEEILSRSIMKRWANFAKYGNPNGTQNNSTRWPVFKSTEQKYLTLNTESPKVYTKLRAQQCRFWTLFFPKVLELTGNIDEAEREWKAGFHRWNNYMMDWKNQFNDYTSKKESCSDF

Row | Compound | IC50 (Acetylcholinesterase [1]) | IC50 (Cholinesterase) | Ratio [2] | Activity [3] | Activity [4] | Activity [5] | Activity [6] | IC50 (Acetylcholinesterase [7])
1 | O=c1c2ccccc2[se]n1CCCCNc1c2c(nc3ccccc13)CCCC2 | 152 nM | 4.94 nM | – | – | – | – | – | –
2 | O=c1c2ccccc2[se]n1CCCCCCCCNc1c2c(nc3ccccc13)CCCC2 | 24.1 nM | 16.6 nM | – | – | – | – | – | –
3 | O=c1c2ccccc2[se]n1CCCCCCCNc1c2c(nc3ccccc13)CCCC2 | 26.5 nM | 14 nM | – | – | – | – | – | –
4 | COc1cc2[se]n(CCCCCCNc3c4c(nc5ccccc35)CCCC4)c(=O)c2cc1OC | 2.55 nM | 2.8 nM | 1.26 | 83.7% | Active | Non-toxic | Active | 15.1 nM
5 | O=c1c2ccccc2[se]n1-c1ccccc1 | – | – | – | 89.7% | Active | – | Active | –
6 | O=c1c2ccccc2[se]n1CCNc1c2c(nc3ccccc13)CCCC2 | 657 nM | 38.9 nM | – | – | – | – | – | –
7 | O=c1c2ccccc2[se]n1CCCCCCCCCNc1c2c(nc3ccccc13)CCCC2 | 32 nM | 25.8 nM | – | – | – | – | – | –
8 | O=c1c2ccccc2[se]n1CCCCCNc1c2c(nc3ccccc13)CCCC2 | 70.8 nM | 4.52 nM | – | – | – | – | – | –
9 | O=c1c2ccccc2[se]n1CCCNc1c2c(nc3ccccc13)CCCC2 | 423 nM | 28.5 nM | – | – | – | – | – | –
10 | O=c1c2ccccc2[se]n1CCCCCCNc1c2c(nc3ccccc13)CCCC2 | 6.32 nM | 4.37 nM | 1.17 | 70% | Active | – | Active | 19.5 nM
11 | c1ccc2c(NCCCCCCCNc3c4c(nc5ccccc35)CCCC4)c3c(nc2c1)CCCC3 | 0.17 nM | 4.08 nM | – | – | – | – | – | –
